Patent publication US6458846B1, “Ion channel modulating agents” (Neurosearch A/S, priority 1998, dated 2002)
Counter-ions that a name gives are not always drawn.

Row | Structure (SMILES) | melting point [°C]
1 | COc1c(C=NO)ccc(Cl)c1Cl (as salt: HCl) [Compound 1f, O-Methyl 2-formyl-5,6-dichlorophenol oxime] | 82 to 83
2 | ON=Cc1ccc(Cl)c(Cl)c1OCc1ccccc1 (as salt: HCl) [Compound 1e, O-Benzyl 2-formyl-5,6-dichlorophenol oxime] | 64 to 69
3 | CC(=O)c1ccccc1NC(C)=NO [Compound 1i, N-(2-acetylphenyl)acetamide oxime] | 99 to 100
